Results on two compounds are retold here after ChEMBL document CHEMBL1151308, “Acanthosterol sulfates A-J: ten new antifungal steroidal sulfates from a marine sponge Acanthodendrilla sp” (1998).

The test system of experiment [1] is Saccharomyces cerevisiae. Briefly: Antifungal activity against Saccharomyces cerevisiae GT160-45c at 0.1 mg/disk. Format: functional, organism-based.
Experiment [2] has as its system Saccharomyces cerevisiae. Briefly: Antifungal activity against Saccharomyces cerevisiae A364A at 0.1 mg/disk. Format: functional.
The subject of experiment [3] is Saccharomyces cerevisiae. In words: Antifungal activity against Saccharomyces cerevisiae RAY-3Aa at 0.1 mg/disk. Format: functional, organism-based.
Experiment [4] relates to Saccharomyces cerevisiae. In words: Antifungal activity against Saccharomyces cerevisiae 14028g mutant at 0.1 mg/disk. Format: functional.
The subject of experiment [5] is Saccharomyces cerevisiae. In words: Antifungal activity against Saccharomyces cerevisiae STX338-2C mutant at 0.1 mg/disk. Format: functional.

SMILES strings stand for the structures. Calls of active or inactive are those of the source. The rule behind the calls is not given here.

Consider `CC(=O)O[C@@H]1C[C@]2(C)[C@H]3CC[C@]4(C)[C@@H]([C@H](C)[C@@H]5O[C@H]5[C@H](C)C(C)C)CC[C@H]4C3=CC[C@H]2[C@H](OS(=O)(=O)[O-])[C@H]1O.[Na+]` [ACANTHOSTEROL SULFATE I], for which the outcome with Saccharomyces cerevisiae [1] and in the experiment on Saccharomyces cerevisiae [3] was inactive. Besides, the “inhibition zone (IZ)” value with Saccharomyces cerevisiae [2] worked out at 7 mm; in the experiment with Saccharomyces cerevisiae [4], 9 mm; with Saccharomyces cerevisiae [5], 8 mm.
For `CC(=O)O[C@@H]1C[C@]2(C)[C@H]3CC[C@]4(C)[C@@H]([C@H](C)[C@@H]5O[C@H]5[C@@H](C)C(C)C)CC[C@H]4C3=CC[C@H]2[C@H](OS(=O)(=O)[O-])[C@H]1O.[Na+]` [ACANTHOSTEROL SULFATE J], the outcome with Saccharomyces cerevisiae [1] and with Saccharomyces cerevisiae [3] was inactive. Moreover, the figures for the “inhibition zone (IZ)” value with Saccharomyces cerevisiae [2], in the experiment with Saccharomyces cerevisiae [4] and in the experiment with Saccharomyces cerevisiae [5] were 11 mm, 11 mm and 10 mm, respectively.
